According to patent US11311524B2, “Pharmaceutical composition used for treatment of HTLV-1-associated myelopathy” (DAIICHI SANKYO COMPANY, LIMITED, priority 2017, dated 2022):

Columns and labels:
HAM patient-derived PBMC = test: Autoproliferation (3H-thymidine incorporation) of HAM patient-derived PBMC without stimulation; format: cell-based, human; details: for GI50: Homo sapiens, PBMC of 8 HAM patients, 6 days culture, 3H-thymidine, read-out: GI50, autoproliferation activity of HAM patient-derived PBMC; for Suppression of autoproliferation activity of HAM patient-derived PBMC: no stimulation, relative to DMSO group
Protocol: PBMC taken from 8 HAM patients were suspended in culture mediums (RPMI1640 culture medium (wako) containing 10% FBS (GIBCO)), seeded in a 96-well round-bottom plate in a ratio of 1×10^5 cells per well (3 wells were used for each concentration), and compound A or compound B was added so as to provide a final concentration of 1, 10, 100 or 1000 nM. Culture was carried out at 37° C. in 5% CO2 conditions for 6 days. The DMSO treatment group and the PSL (1 μg/mL) treatment group were used as controls. Day 6 after initiation of culture, 1 μCi ^3H-thymidine was added to each well and culture was carried out at 37° C., in 5% CO2 conditions for 16 hours. Thereafter, the cultured cells were allowed to adsorb to a glass filter (Printed Filtermat A, PerkinElmer) by a cell harvester (Tomtec MH3, PerkinElmer), dried and impregnated with solid scintillator Meltilex-A (PerkinElmer). The amount of the ^3H-thymidine incorporated in the cells was measured by use of MicroBeta (WALLAC MicroBeta TriLux 1450-021) (Yamano et al., PLoS One. 2009, 4(8): e6517). Based on the average count of ^3H-thymidine in the DMSO treatment group of HAM patients' PBMC as 100%, the relative values of the groups treated with compound A, compound B and PSL (1 μg/mL) were obtained by calculation, and then, an average value of 8 HAM patient cases was obtained. A significance test was carried out in accordance with the Friedman test of GraphPad Prism6 (MDF).
The number of patients was increased to 16 and the same experiment as above was carried out.
Effect on HAM patient-derived PBMC was checked in the same manner as in the above Example except that an EZH2 inhibitor was used in place of compounds A and B.
As the EZH2 inhibitor, GSK126 (CAS No.: 1346574-57-9) and E7438 (CAS No.: 1403254-99-8) were used. The concentration for treatment was 1, 10, 100, 1000 or 10000 nM in terms of final concentration. In the experiment, PBMC samples taken from the 8 persons before the number of cases increased in the above were used.

[1] = test system: HTLV-1 infected cells in HAM patient's PBMC; test: HTLV-1 pro-viral load (infected cell rate) in HAM patient-derived PBMC by real time PCR; format: cell-based, human; details: PSL 1 μg/ml control, this experimental system or clinical sites
Protocol: PBMC taken from 8 HAM patients were suspended in a culture medium (RPMI1640 culture medium containing 10% FBS) and seeded in a 48-well plate in a ratio of 5×10^5 cells per well, and compound A or compound B was added so as to provide a final concentration of 1, 10, 100 or 1000 nM. The culture solution of 0.5 mL in total was cultured at 37° C. in 5% CO2 conditions for 12 days. A group treated with DMSO and a group treated with PSL (1 μg/mL) were used as controls. Day 12 after initiation of culture, the culture solution was centrifuged, and thereafter, the cell suspension was recovered from each of the cultures carried out under different conditions and centrifuged. After the supernatant was removed, the cell pellet was subjected to genomic DNA extraction. The genome DNA extracted was subjected to real time PCR to measure HTLV-1 pro-viral load (infected cell rate) (Yamano et al., Blood. 2002, 99 (1): 88-94). Based on the HTLV-1 pro-viral load in cells, which were obtained by adding DMSO to each of the HAM patient's PBMC and culturing the PBMC, as 100%, the relative value of HTLV-1 pro-viral load in a group treated with compound A, compound B or PSL was calculated, and then, an average value of 8 HAM patient cases was obtained. The significance test was carried out by using the Friedman test of GraphPad Prism6 (MDF).

Row | SMILES | GI50 (HAM patient-derived PBMC) [µM] | Suppression of autoproliferation activity of HAM patient-derived PBMC (HAM patient-derived PBMC) | Infected cell removal activity [1]
1 | CCN(c1cc(-c2ccc(CN3CCOCC3)cc2)cc(C(=O)NCc2c(C)cc(C)[nH]c2=O)c1C)C1CCOCC1 [E7438, N-((4,6-Dimethyl-2-oxo-1,2-dihydropyridin-3-yl)methyl)-5-(ethyl(tetrahydro-2H-piran-4-yl)amino)-4-methyl-4′-(morpholinomethyl)-[1,1′-biphenyl]-3-carboxamide, reference compound] | 0.214 | suppress autoproliferation activity | –
2 | C[C@]12C=CC(=O)C=C1CC[C@@H]1[C@@H]2[C@@H](O)C[C@@]2(C)[C@H]1CC[C@]2(O)C(=O)CO [PSL, prednisolone, reference compound] | – | can suppress autoproliferation activity | does not exhibit infected cell removal activity
3 | CC[C@H](C)n1cc(C)c2c(C(=O)NCc3c(C)cc(C)[nH]c3=O)cc(-c3ccc(N4CCNCC4)nc3)cc21 [GSK126, N-[(1,2-Dihydro-4,6-dimethyl-2-oxo-3-pyridinyl)methyl]-3-methyl-1-[(1S)-1-methylpropyl]-6-[6-(1-piperazinyl)-3-pyridinyl]-1H-indole-4-carboxamide, reference compound] | 0.724 | suppress autoproliferation activity | –
